US20240197658A1, “COMPOSITION FOR INHIBITING ANTI-CANCER DRUG RESISTANCE” (AJOU UNIVERSITY INDUSTRY-ACADEMIC COOPERATION FOUNDATION, priority 2022, published 2024)

Columns and labels:
Type in all cases: cell-based
[1] = test system: fibroblasts CAF47, CAF51, CAF98, and CAF104; test: Confirmation of inhibition of senescence of fibroblasts (shape observation); conditions: FIG. 2
Description: An experiment was performed to confirm changes in shapes of fibroblasts by treating several fibroblasts CAF47, CAF51, CAF98, and CAF104 with an anti-cancer drug, 5-fluorouracil (5-FU), and then treating Example thereto.
FIG. 2 illustrates results of observing the shapes of fibroblasts under various conditions according to Experimental Example of the present disclosure.

SNU668 cells = test: Cell viability of gastric cancer cells cultured in fibroblast conditioned media; conditions: FIG. 3
Description: Gastric cancer cells, SNU668 cells, were cultured in conditioned media of fibroblasts, CAF98 and CAF104, respectively, and treated with Example to confirm changes in cell viability of cancer cells.
FIG. 3 illustrates results of confirming the cell viability of SNU66, a gastric cancer cell, under various conditions according to Experimental Example of the present disclosure.

SNU668 = test: Migration of gastric cancer cells in fibroblast condition media / co-culture with CAFs; conditions: for migration of gastric cancer cells: FIGS. 4 and 5
Description: An experiment was performed to confirm changes in migration of gastric cancer cells when treating gastric cancer cells with a substance according to Example (ftaxilide).
SNU668 was co-cultured with 5-FU in various types of fibroblast condition media, and sequentially additionally treated with 5-FU and Example to confirm changes in the migration of gastric cancer cells.
FIG. 4 illustrates results of observing the migration of SNU668, a gastric cancer cell, under various conditions according to Experimental Example of the present disclosure.
FIG. 5 illustrates results of measuring the migration of SNU668, a gastric cancer cell, under various conditions according to Experimental Example of the present disclosure.

[2] = CAF treated with Example (100 μM 5-FU+5 μM Example)

| SMILES | shapes of fibroblasts (characteristics of senescent cells) ([1]; fibroblasts CAF47, CAF51, CAF98, CAF104 treated with 5-FU) | cell viability of cancer cells (SNU668 cells; SNU668 in conditioned medium of CAF98 and CAF104, treated with 5-FU (C98_5FU, C104_5FU)) | migration of gastric cancer cells (SNU668; CAFs senesced by 5-FU then co-cultured with SNU668 (100 μM 5-FU)) | migration of gastric cancer cells (SNU668; SNU668 treated with 5-FU (SNU668+5FU)) | shapes of fibroblasts ([1]; fibroblasts treated with 5-FU, then with Example) | cell viability of cancer cells (SNU668 cells; SNU668 in conditioned medium of CAF98 and CAF104, 5-FU, further treated with Example (C98_5FU_Ftaxil, C104_5FU_Ftaxil)) | senescence of CAF (SNU668; [2]) | migration of gastric cancer cells (SNU668; [2]) |
| --- | --- | --- | --- | --- | --- | --- | --- | --- |
| O=c1[nH]cc(F)c(=O)[nH]1 [Example 5-FU, 5-fluorouracil] | the cell sizes increased and the cell growth rate slowed down | the cell viability of cancer cells further increased | the migration of gastric cancer cells further increased | the migration of gastric cancer cells increased |  |  |  |  |
| Cc1cccc(C)c1NC(=O)c1ccccc1C(=O)O [Example, Ftaxilide] |  |  |  |  | the senescent fibroblasts returned to their original shapes | decreased again | the senescence of CAF was prevented | decreased again |
